Legend:
Apolipoprotein L1 = Apolipoprotein L1 (Homo sapiens, UniProt O14791); assay: Inhibition of APOL1 G1 variant in human HEK293-T-REx cells measured by Thallium assay; type: cell-based
[1] = system: Trypanosoma brucei brucei; assay: Antitrypanosomal activity against Trypanosoma brucei brucei assessed as trypanosome lysis using recombinant APOL1 protein G1 variant and measured by Alamar blue based fluoresence assay; type: functional, organism-based

Structure (SMILES)	IC50 (Apolipoprotein L1) [nM]	IC50 [1] [nM]
O=C(N[C@H]1CC[C@@H](CO)O1)[C@H]1C[C@H](c2c(-c3ccc(F)cc3)[nH]c3c(F)cc(F)cc32)C1	> 1000	> 1000
O=C([C@H]1C[C@H](c2c(-c3ccc(F)cc3)[nH]c3c(F)cc(F)cc32)C1)N1CC[C@H]1CO	0.25	< 250
O=C([C@H]1C[C@H](c2c(-c3ccc(F)cc3)[nH]c3c(F)cc(F)cc32)C1)N1CCC[C@@H]1CO	0.25	< 250
N#CC(CO)NC(=O)[C@H]1C[C@H](c2c(-c3ccc(F)cc3)[nH]c3c(F)cc(F)cc32)C1 (some centres not stated)	< 250	< 250
O=C([C@H]1C[C@H](c2c(-c3ccc(F)cc3)[nH]c3c(F)cc(F)cc32)C1)N1CCC[C@H]1CO	> 1000	250
CC(CO)(CO)NC(=O)[C@H]1C[C@H](c2c(-c3ccc(F)cc3)[nH]c3c(F)cc(F)cc32)C1	< 250	< 250
O=C1N[C@H](CO)C[C@@H]1NC(=O)[C@H]1C[C@H](c2c(-c3ccc(F)cc3)[nH]c3c(F)cc(F)cc32)C1	> 1000	> 1000
CC[C@@H](CO)NC(=O)[C@H]1C[C@H](c2c(-c3ccc(F)cc3)[nH]c3c(F)cc(F)cc32)C1	0.25	< 250
CCC(CO)NC(=O)[C@H]1C[C@H](c2c(-c3ccc(F)cc3)[nH]c3c(F)cc(F)cc32)C1 (some centres not stated)	< 250	250
O=C(NCC1(O)CC1)[C@H]1C[C@H](c2c(-c3ccc(F)cc3)[nH]c3c(F)cc(F)cc32)C1	0.25	250
CC(CO)N(C)C(=O)[C@H]1C[C@H](c2c(-c3ccc(F)cc3)[nH]c3c(F)cc(F)cc32)C1 (some centres not stated)	< 250	250
O=C(N[C@H]1CCC[C@@H]1O)[C@H]1C[C@H](c2c(-c3ccc(F)cc3)[nH]c3c(F)cc(F)cc32)C1	0.25	250
O=C(NC(CO)C1CC1)[C@H]1C[C@H](c2c(-c3ccc(F)cc3)[nH]c3c(F)cc(F)cc32)C1 (some centres not stated)	0.25	250
O=C1NCCC1CNC(=O)[C@H]1C[C@H](c2c(-c3ccc(F)cc3)[nH]c3c(F)cc(F)cc32)C1 (some centres not stated)	> 1000	> 1000
O=C(N[C@H]1CC[C@H](O)C1)[C@H]1C[C@H](c2c(-c3ccc(F)cc3)[nH]c3c(F)cc(F)cc32)C1	> 1000	> 1000
O=C1OCC[C@@H]1NC(=O)[C@H]1C[C@H](c2c(-c3ccc(F)cc3)[nH]c3c(F)cc(F)cc32)C1	0.25	250
O=C([C@H]1C[C@H](c2c(-c3ccc(F)cc3)[nH]c3c(F)cc(F)cc32)C1)N1CC[C@@H]1CO	< 250	< 250
O=C(NC1(CO)CC(F)(F)C1)[C@H]1C[C@H](c2c(-c3ccc(F)cc3)[nH]c3c(F)cc(F)cc32)C1	0.25	< 250
CC(C#N)(CO)NC(=O)[C@H]1C[C@H](c2c(-c3ccc(F)cc3)[nH]c3c(F)cc(F)cc32)C1 (some centres not stated)	0.25	< 250
CC1(NC(=O)[C@H]2C[C@H](c3c(-c4ccc(F)cc4)[nH]c4c(F)cc(F)cc43)C2)CCNC1=O (some centres not stated)	0.25	< 250
C#CC(CO)NC(=O)[C@H]1C[C@H](c2c(-c3ccc(F)cc3)[nH]c3c(F)cc(F)cc32)C1 (some centres not stated)	0.25	< 250
CC1CC(NC(=O)[C@H]2C[C@H](c3c(-c4ccc(F)cc4)[nH]c4c(F)cc(F)cc43)C2)C(=O)O1 (some centres not stated)	> 1000	> 1000
O=C(NCC1(O)COC1)[C@H]1C[C@H](c2c(-c3ccc(F)cc3)[nH]c3c(F)cc(F)cc32)C1	0.25	250
O=C(NC1(CO)CCOC1)[C@H]1C[C@H](c2c(-c3ccc(F)cc3)[nH]c3c(F)cc(F)cc32)C1 (some centres not stated)	< 250	< 250
Cn1ncc(CNC(=O)[C@H]2C[C@H](c3c(-c4ccc(F)cc4)[nH]c4c(F)cc(F)cc43)C2)n1	0.25	< 250
CN(C(=O)[C@H]1C[C@H](c2c(-c3ccc(F)cc3)[nH]c3c(F)cc(F)cc32)C1)C1COCC1O (some centres not stated)	> 1000	> 1000

— ChEMBL document CHEMBL5052856, “Inhibitors of apol1 and methods of using same” (2021)
